Target: Vasopressin V2 (Rattus norvegicus, UniProt Q00788)
Experiment: Vasopressin V2 agonist effects in normal conscious water-loaded rats
Format: in vivo
Set-up: from tissue; host or cells: whole living Sprague-Dawley rat; the receptor is the animal's own (renal, by own knowledge)
Settings: Sprague-Dawley (CD) rats; for Osmolality (% Increase): change in osmolality as percent of control; for Urine Volume (% decrease): vs. control
Source text: Vasopressin V2 Agonist Effects of Test Compounds in Normal Conscious Water-loaded Rats
Male or female normotensive Sprague-Dawley rats (Charles River Laboratories, Inc., Kingston, N.Y.) of 350-500 g body weight were supplied with standard rodent diet (Purina Rodent Lab. Chow 5001) and water ad libitum. On the day of test, rats were placed individually into metabolic cages equipped with devices to separate the feces from the urine and containers for collection of urine. […] The vehicle used was 20% dimethylsulfoxide (DMSO) in 2.5% preboiled corn starch. Thirty minutes after dosing the test compound, rats were gavaged with water at 30 ml/kg into the stomach using a feeding needle. During the test, rats were not provided with water or food. Urine was collected for four hours after dosing of the test compound. At the end of four hours, urine volume was measured. Urinary osmolality was determined using a Fiske One-Ten Osmometer (Fiske Associates, Norwood, Mass., 02062) or an Advanced CRYOMATIC Osmometer, Model 3C.2 (Advanced Instruments, Norwood, Mass.). Determinations of Na^+, K^+ and Cl^− ion were carried out using ion specific electrodes in a Beckman SYNCHRON EL-ISE Electrolyte System analyzer. The urinary osmolality should increase proportionally. In the screening test, two rats were used for each compound. If the difference in the urine volume of the two rats was greater than 50%, a third rat was used.

[1] = 10 mg/kg oral, urine collected four hours

Vasopressin V2, sequence (Q00788 whole entry): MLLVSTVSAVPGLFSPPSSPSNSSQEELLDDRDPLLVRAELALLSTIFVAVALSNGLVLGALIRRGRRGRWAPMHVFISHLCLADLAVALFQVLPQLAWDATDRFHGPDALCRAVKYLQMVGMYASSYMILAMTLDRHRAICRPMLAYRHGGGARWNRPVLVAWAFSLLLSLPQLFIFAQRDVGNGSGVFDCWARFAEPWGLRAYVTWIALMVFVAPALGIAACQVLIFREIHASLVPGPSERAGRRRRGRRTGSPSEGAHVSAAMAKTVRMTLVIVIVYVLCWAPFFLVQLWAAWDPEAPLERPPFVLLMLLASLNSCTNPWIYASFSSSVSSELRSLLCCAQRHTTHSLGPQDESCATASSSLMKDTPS

SMILES | Osmolality (% Increase) (1 mg/kg) | Urine Volume (% decrease) (1 mg/kg) | Osmolality (% Increase) (10 mg/kg oral) | Urine Volume (% decrease) [1]
Cc1ccn(-c2ccc(C(=O)N3Cc4cccn4Cc4ccccc43)c(C(F)(F)F)c2)n1 [Example 2, [4-(3-Methyl-pyrazol-1-yl)-2-trifluoromethyl-phenyl](5H,11H-pyrrolo[2,1-c]-[1,4]benzodiazepin-10-yl)-methanone] | 306% (1 mg/kg) | 80% (1 mg/kg) | – | –
Cc1cnn(-c2ccc(C(=O)N3Cc4cccn4Cc4ccccc43)c(C(F)(F)F)c2)c1 [Example 3, [4-(4-Methyl-pyrazol-1-yl)-2-trifluoromethyl-phenyl]-(5H,11H-pyrrolo[2,1-c][1,4]benzodiazepin-10-yl)-methanone] | – | – | 240% | 58%
O=C(c1ccc(-n2cccn2)cc1C(F)(F)F)N1Cc2cccn2Cc2ccccc21 [Example 4, (4-Pyrazol-1-yl-2-trifluoromethyl-phenyl)-(5H,11H-pyrrolo[2,1-c][1,4]benzodiazepin-10-yl)-methanone] | – | – | 225% | 57%
O=C(c1ccc(-n2ccc(C3CC3)n2)cc1C(F)(F)F)N1Cc2cccn2Cc2ccccc21 [Example 5, [4-(3-Cyclopropyl-pyrazol-1-yl)-2-trifluoromethy-phenyl]-(5H,11H-pyrrolo[2,1-c][1,4]benzodiazepin-10-yl)-methanone] | – | – | 231% | 56%
Cc1cn(-c2ccc(C(=O)N3Cc4cccn4Cc4ccccc43)c(C(F)(F)F)c2)cn1 [Example 6, [4-(4-Methyl-imidazol-1-yl)-2-trifluoromethyl-phenyl]-(5H,11H-pyrrolo[2,1-c][1,4]benzodiazepin-10-yl)-methanone] | – | – | 270% | 58%
O=C(c1ccc(-n2cncn2)cc1C(F)(F)F)N1Cc2cccn2Cc2ccccc21 [Example 7, (5H,11H-Pyrrolo[2,1-c][1,4]benzodiazepin-10-yl)-(4-[1,2,4]triazol-1-yl-2-trifluoromethylphenyl)-methanone] | – | – | 137% | 13%
Cc1ccnn1-c1ccc(C(=O)N2Cc3cccn3Cc3ccccc32)c(Cl)c1 [Example 9B] | – | – | 168% | 21%
Cc1cnn(-c2ccc(C(=O)N3Cc4cccn4Cc4ccccc43)c(Cl)c2)c1 [Example 11] | – | – | 285% | 70%
Cc1cn(-c2ccc(C(=O)N3Cc4cccn4Cc4ccccc43)c(Cl)c2)cn1 [Example 12, [2-Chloro-4-(4-methyl-imidazol-1-yl)-phenyl]-(5H,11H-pyrrolo[2,1-c][1,4]benzodiazepin-10-yl)-methanone] | – | – | 330% | 69%
O=C(c1ccc(-n2ccc(C(F)(F)F)n2)cc1Cl)N1Cc2cccn2Cc2ccccc21 [Example 13, [2-Chloro-4-(3-trifluoromethyl-pyrazol-1-yl)-phenyl]-(5H,11H-pyrrolo[2,1-c][1,4]benzodiazepin-10-yl)-methanone] | – | – | 229% | 50%
O=C(c1ccc(-n2cncn2)cc1Cl)N1Cc2cccn2Cc2ccccc21 [Example 14, [2-Chloro-4-(1,2,4-triazol-1-yl)-phenyl]-(5H,11H-pyrrolo[2,1-c][1,4]benzodiazepin-10-yl)-methanone] | – | – | 406% | 86%
O=C(c1ccc(-n2cccc2)cc1Cl)N1Cc2cccn2Cc2ccccc21 [Example 15, (2-Chloro-4-pyrrol-1-yl-phenyl)-(5H,11H-pyrrolo[2,1-c][1,4]benzodiazepin-10-yl)-methanone] | – | – | 38% | 47%
O=C(c1ccc(-n2cccn2)cc1Cl)N1Cc2cccn2Cc2ccccc21 [Example 16, (2-Chloro-4-pyrazol-1-yl-phenyl)(5H,11H-Pyrrolo[2,1-c][1,4]benzodiazepin-10-yl)-methanone] | – | – | 400% | 88%
Cc1ccn(-c2ncc(C(=O)N3Cc4cccn4Cc4ccccc43)c(C(F)(F)F)n2)n1 [Example 20, [2-(3-Methyl-pyrazol-1-yl)-4-trifluoromethyl-pyrimidin-5-yl]-(5H,11H-pyrrolo[2,1-c][1,4]benzodiazepin-10-yl)-methanone] | 152% (1 mg/kg) | 25% (1 mg/kg) | – | –
Cc1cnn(-c2ncc(C(=O)N3Cc4cccn4Cc4ccccc43)c(C(F)(F)F)n2)c1 [Example 21, [2-(4-Methyl-pyrazol-1-yl)-4-trifluoromethyl-pyrimidin-5-yl]-(5H,11H-pyrrolo[2,1-c][1,4]benzodiazepin-10-yl)-methanone] | – | – | 181% | 49%
CC(=O)c1ccc(C(=O)N2Cc3cccn3Cc3ccccc32)cc1 [Example 22, 1-[4-(5H,11H-Pyrrolo[2,1-c][1,4]benzodiazepine-10-carbonyl)-phenyl]-ethanone] | – | – | 322% | 80%
O=C(c1ccc(-c2cc[nH]n2)cc1)N1Cc2cccn2Cc2ccccc21 [Example 24, [4-(1H-Pyrazol-3-yl)-phenyl]-(5H,11H-pyrrolo[2,1-c][1,4]benzodiazepin-10-yl)-methanone] | – | – | 159% | 47%
Cn1ccc(-c2ccc(C(=O)N3Cc4cccn4Cc4ccccc43)cc2)n1 [Example 25, [4-(1-Methyl-1H-pyrazolyl-3-yl)-phenyl]-(5H,11H-pyrrolo[2,1-c][1,4]-benzodiazepin-10-yl)-methanone] | – | – | 979% | 87%
CCn1ccc(-c2ccc(C(=O)N3Cc4cccn4Cc4ccccc43)cc2)n1 [Example 26, [4-(1-Ethyl-1H-pyrazol-3-yl)-phenyl]-(5H,11H-pyrrolo[2,1-c][1,4]-benzodiazepin-10-yl)-methanone] | – | – | 279% | 54%
CCCn1ccc(-c2ccc(C(=O)N3Cc4cccn4Cc4ccccc43)cc2)n1 [Example 27, [4-(1-Propyl-1H-pyrazol-3-yl)-phenyl]-(5H,11H-pyrrolo[2,1-c][1,4]-benzodiazepin-10-yl)-methanone] | – | – | 183% | 76%
CCCCn1ccc(-c2ccc(C(=O)N3Cc4cccn4Cc4ccccc43)cc2)n1 [Example 28, [4-(1-Butyl-1H-pyrazol-3-yl)-phenyl]-(5H,11H-pyrrolo[2,1-c][1,4]-benzodiazepin-10-yl)-methanone] | – | – | 37% | 75%
COCn1ccc(-c2ccc(C(=O)N3Cc4cccn4Cc4ccccc43)cc2)n1 [Example 29, [4-(1-methoxymethyl-1H-pyrazol-3-yl)-phenyl]-(5H,11H-pyrrolo[2,1-c][1,4]-benzodiazepin-10-yl)-methanone] | – | – | 305% | 66%
CCC(=O)n1ccc(-c2ccc(C(=O)N3Cc4cccn4Cc4ccccc43)cc2)n1 [Example 31, 1-{3-[4-(5H,11H-Pyrrolo[2,1-c][1,4]benzodiazepine-10-carbonyl)-phenyl]-pyrazol-1-yl}-propan-1-one] | – | – | 298% | 72%
O=C(c1ccc(-c2ccn(C(=O)C3CC3)n2)cc1)N1Cc2cccn2Cc2ccccc21 [Example 32, [4-(1-Cyclopropanecarbonyl-1H-pyrazol-3-yl)-phenyl]-(5H,11H-pyrrolo[2,1-c][1,4]benzodiazepin-10-yl)-methanone] | – | – | 373% | 77%
Cc1ccc(F)cc1C(=O)n1ccc(-c2ccc(C(=O)N3Cc4cccn4Cc4ccccc43)cc2)n1 [Example 35, {4-[1-(5-Fluoro-2-methyl-benzoyl)-1H-pyrazol-3-yl]-phenyl}-(5H,11H-pyrrolo[2,1-c][1,4]benzodiazepin-10-yl)-methanone] | – | – | 308% | 63%
O=C(c1ccc(-c2ccn(C(=O)Cc3ccc(Cl)cc3Cl)n2)cc1)N1Cc2cccn2Cc2ccccc21 [Example 39, 2-(2,4-Dichloro-phenyl)-1-{3-[4-(5H,11H-pyrrolo[2,1-c][1,4]benzodiazepine-10-carbonyl)-phenyl]-pyrazol-1-yl}-ethanone] | – | – | 253% | 69%
O=C(c1ccc(-c2ccn(C(=O)c3ccccc3-c3ccccc3)n2)cc1)N1Cc2cccn2Cc2ccccc21 [Example 40, {4-[1-(Biphenyl-2-carbonyl)-1H-pyrazol-3-yl]-phenyl}-(5H,11H-pyrrolo[2,1-c][1,4]benzodiazepin-10-yl)-methanone] | – | – | 183% | 46%
O=C(c1ccc(-c2ccn(C(=O)c3ccccc3-c3ccc(C(F)(F)F)cc3)n2)cc1)N1Cc2cccn2Cc2ccccc21 [Example 41, {4-[1-(4′-Trifluoromethyl-biphenyl-2-carbonyl)-1H-pyrazol-3-yl]-phenyl}-(5H,11H-pyrrolo[2,1-c][1,4]benzodiazepin-10-yl)-methanone] | – | – | 240% | 69%

Reference: US6831079B1, “Vasopressin agonist formulation and process” (American Cyanamid Company, priority 1999, dated 2004)
